Laboratory results as given in publication PMC7252619 (PLoS ONE, 2020).

What was measured:
Experiment in all cases: Kinase activity test (ReactionBiology), % enzyme activity relative to DMSO;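 as to % Enzyme Activity (relative to DMSO controls), Data 2: FDA-approved drugs chosen by structure-based repositioning, each screened at 10 or 1 µM for kinase activity, expressed as percent of DMSO controls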
Format in all cases: biochemical
[1] = target: T1, NEK2 (Homo sapiens, UniProt P51955); conditions: NEK2;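 also: FDA-approved drugs chosen by structure-based repositioning, each screened at 10 or 1 µM for kinase activity, expressed as percent of DMSO controls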
T1 construct: purchased ReactionBiology
T1 sequence (P51955 1-445): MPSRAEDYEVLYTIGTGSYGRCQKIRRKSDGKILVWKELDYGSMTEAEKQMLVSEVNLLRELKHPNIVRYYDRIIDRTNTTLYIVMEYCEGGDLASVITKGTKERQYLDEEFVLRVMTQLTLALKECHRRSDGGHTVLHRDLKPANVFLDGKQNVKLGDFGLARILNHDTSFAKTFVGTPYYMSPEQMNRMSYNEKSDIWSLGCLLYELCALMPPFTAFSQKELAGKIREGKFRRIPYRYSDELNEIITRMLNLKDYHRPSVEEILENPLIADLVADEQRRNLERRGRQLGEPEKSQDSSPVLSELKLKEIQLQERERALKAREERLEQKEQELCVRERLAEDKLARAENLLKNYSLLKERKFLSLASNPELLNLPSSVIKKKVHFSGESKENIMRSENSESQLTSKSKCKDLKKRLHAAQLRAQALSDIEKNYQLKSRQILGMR

[2] = target: T2, DAPK1 (Homo sapiens, UniProt P53355); conditions: DAPK1; for % Enzyme Activity (relative to DMSO controls), Data 1: replicate Data 1
T2 construct: purchased ReactionBiology

[3] = target: T3, CK1d (Homo sapiens, UniProt P48730); conditions: CK1d; for % Enzyme Activity (relative to DMSO controls), Data 1: 1 uM, replicate Data 1
T3 construct: purchased ReactionBiology

[4] = target: VEGFR2 (Homo sapiens, UniProt P35968); design: purchased ReactionBiology; conditions: VEGFR2, replicate Data 1;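 also: VEGFR2 was one member of a ten-kinase screening panel testing marketed FDA-approved drugs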
[5] = compound at 1 uM, average of Data 1 and Data 2
[6] = compound at 10 uM, average of Data 1 and Data 2

T2 sequence (P53355 whole entry): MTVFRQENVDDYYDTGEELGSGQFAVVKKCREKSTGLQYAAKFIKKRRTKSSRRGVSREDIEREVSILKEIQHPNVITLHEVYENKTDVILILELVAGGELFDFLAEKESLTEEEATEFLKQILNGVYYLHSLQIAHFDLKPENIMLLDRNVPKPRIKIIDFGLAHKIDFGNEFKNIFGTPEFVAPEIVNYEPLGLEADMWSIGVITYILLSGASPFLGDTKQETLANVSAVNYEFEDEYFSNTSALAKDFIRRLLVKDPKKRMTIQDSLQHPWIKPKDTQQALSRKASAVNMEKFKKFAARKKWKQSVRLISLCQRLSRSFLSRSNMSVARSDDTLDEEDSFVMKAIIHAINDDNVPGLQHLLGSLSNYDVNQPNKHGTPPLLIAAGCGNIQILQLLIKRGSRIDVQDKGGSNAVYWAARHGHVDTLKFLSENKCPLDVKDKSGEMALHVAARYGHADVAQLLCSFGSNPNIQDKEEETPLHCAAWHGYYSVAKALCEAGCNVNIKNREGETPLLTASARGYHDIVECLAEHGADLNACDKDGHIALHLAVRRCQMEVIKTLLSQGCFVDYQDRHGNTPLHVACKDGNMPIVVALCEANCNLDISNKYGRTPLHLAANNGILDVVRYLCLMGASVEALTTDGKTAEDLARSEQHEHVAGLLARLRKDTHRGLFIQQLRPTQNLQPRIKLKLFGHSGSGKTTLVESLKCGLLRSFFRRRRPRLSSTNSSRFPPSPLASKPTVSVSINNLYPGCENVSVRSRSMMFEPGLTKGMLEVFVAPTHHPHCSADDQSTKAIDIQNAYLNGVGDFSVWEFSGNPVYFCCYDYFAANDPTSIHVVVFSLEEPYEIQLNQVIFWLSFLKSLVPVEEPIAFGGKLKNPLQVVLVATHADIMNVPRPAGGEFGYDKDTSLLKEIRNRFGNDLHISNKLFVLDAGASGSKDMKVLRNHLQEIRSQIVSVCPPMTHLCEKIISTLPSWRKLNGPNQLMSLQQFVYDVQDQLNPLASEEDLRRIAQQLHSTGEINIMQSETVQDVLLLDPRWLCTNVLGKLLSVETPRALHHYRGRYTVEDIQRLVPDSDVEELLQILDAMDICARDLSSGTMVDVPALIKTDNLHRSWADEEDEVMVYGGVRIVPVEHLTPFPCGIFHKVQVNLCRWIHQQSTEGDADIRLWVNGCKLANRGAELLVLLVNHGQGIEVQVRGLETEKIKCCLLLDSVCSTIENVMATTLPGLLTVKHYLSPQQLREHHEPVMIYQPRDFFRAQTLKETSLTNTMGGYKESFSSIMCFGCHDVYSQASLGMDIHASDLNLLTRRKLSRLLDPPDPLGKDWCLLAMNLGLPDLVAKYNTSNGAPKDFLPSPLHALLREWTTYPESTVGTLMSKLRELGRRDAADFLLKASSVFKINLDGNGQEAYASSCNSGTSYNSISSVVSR
VEGFR2, sequence (P35968 20-1356): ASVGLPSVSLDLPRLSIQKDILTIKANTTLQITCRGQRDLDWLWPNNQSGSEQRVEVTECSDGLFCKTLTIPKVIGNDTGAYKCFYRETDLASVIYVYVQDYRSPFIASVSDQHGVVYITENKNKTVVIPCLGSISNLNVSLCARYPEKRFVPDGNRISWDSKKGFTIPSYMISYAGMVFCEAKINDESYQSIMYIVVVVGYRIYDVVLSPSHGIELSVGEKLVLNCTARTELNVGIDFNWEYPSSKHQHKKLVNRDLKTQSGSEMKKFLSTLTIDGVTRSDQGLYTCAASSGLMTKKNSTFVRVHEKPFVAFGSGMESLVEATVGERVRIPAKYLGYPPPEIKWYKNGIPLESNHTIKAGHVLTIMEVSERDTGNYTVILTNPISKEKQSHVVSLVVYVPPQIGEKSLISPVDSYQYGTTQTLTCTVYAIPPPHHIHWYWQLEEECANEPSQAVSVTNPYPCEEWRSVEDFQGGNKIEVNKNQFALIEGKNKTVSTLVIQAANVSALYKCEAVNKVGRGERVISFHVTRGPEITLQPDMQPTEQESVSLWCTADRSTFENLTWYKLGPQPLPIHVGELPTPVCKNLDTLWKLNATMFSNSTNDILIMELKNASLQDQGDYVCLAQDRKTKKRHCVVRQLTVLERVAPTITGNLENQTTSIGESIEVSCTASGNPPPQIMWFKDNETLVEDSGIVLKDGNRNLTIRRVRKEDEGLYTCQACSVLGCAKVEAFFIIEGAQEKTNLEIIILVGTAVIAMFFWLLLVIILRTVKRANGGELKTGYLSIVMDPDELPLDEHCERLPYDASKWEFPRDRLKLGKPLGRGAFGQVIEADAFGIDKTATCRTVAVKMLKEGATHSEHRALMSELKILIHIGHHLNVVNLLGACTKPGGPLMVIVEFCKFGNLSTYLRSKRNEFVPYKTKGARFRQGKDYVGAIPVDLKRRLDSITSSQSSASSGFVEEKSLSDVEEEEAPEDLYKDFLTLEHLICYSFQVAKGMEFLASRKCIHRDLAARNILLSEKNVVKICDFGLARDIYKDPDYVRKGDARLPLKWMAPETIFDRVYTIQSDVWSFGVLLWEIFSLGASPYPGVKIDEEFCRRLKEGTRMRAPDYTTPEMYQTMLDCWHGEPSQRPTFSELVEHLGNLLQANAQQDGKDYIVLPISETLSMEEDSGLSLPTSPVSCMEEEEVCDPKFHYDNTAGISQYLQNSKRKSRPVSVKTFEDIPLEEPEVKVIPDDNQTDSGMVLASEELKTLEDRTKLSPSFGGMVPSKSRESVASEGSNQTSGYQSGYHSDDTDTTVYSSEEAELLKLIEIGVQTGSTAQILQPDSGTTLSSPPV
T3 sequence (P48730 whole entry): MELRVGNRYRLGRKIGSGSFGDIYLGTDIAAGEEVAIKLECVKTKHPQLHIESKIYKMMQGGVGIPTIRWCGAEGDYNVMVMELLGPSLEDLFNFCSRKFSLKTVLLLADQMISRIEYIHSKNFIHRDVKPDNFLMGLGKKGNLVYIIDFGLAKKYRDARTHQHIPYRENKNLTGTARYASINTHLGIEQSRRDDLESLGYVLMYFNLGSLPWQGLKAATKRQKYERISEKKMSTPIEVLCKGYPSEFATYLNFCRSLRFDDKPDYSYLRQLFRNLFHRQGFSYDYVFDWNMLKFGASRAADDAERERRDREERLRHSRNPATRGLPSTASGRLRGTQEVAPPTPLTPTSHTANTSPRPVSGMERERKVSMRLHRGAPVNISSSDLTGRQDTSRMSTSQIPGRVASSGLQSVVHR

Cc1nnc(C(C)C)n1C1C[C@H]2CC[C@@H](C1)N2CC[C@H](NC(=O)C1CCC(F)(F)CC1)c1ccccc1 (stereo in doubt) [Maraviroc]
% Enzyme Activity (relative to DMSO controls), Average ([1]; 1 uM, Average): 95.71%
% Enzyme Activity (relative to DMSO controls), Data 1 ([1]; 1 uM, replicate Data 1): 89.78%
% Enzyme Activity (relative to DMSO controls), Data 2 ([1]; 1 uM, replicate Data 2): 101.63%
% Enzyme Activity (relative to DMSO controls), Average ([1]; 10 uM, Average): 100.82%
% Enzyme Activity (relative to DMSO controls), Data 1 ([1]; 10 uM, replicate Data 1): 99.97%
% Enzyme Activity (relative to DMSO controls), Data 2 ([1]; 10 uM, replicate Data 2): 101.67%

Nc1nc2c(ncn2COCCO)c(=O)[nH]1 [Acyclovir]
% Enzyme Activity (relative to DMSO controls), Average ([1]; 1 uM, Average): 93.64%
% Enzyme Activity (relative to DMSO controls), Data 1 ([1]; 1 uM, replicate Data 1): 83.95%
% Enzyme Activity (relative to DMSO controls), Data 2 ([1]; 1 uM, replicate Data 2): 103.33%
% Enzyme Activity (relative to DMSO controls), Average ([1]; 10 uM, Average): 100.63%
% Enzyme Activity (relative to DMSO controls), Data 1 ([1]; 10 uM, replicate Data 1): 101.40%
% Enzyme Activity (relative to DMSO controls), Data 2 ([1]; 10 uM, replicate Data 2): 99.86%

CC(=O)OCC1=C(C(=O)O)N2C(=O)[C@@H](NC(=O)Cc3cccs3)[C@H]2SC1 [Cephalothin]
% Enzyme Activity (relative to DMSO controls), Average [1, 5]: 98.03%
% Enzyme Activity (relative to DMSO controls), Data 1 ([1]; compound at 1 uM, replicate 1): 94.64%
% Enzyme Activity (relative to DMSO controls), Data 2 ([1]; compound at 1 uM, replicate 2): 101.41%
% Enzyme Activity (relative to DMSO controls), Average [1, 6]: 78.52%
% Enzyme Activity (relative to DMSO controls), Data 1 ([1]; compound at 10 uM, replicate 1): 86.91%
% Enzyme Activity (relative to DMSO controls), Data 2 ([1]; compound at 10 uM, replicate 2): 70.13%

CC(C)CN(C[C@@H](O)[C@H](Cc1ccccc1)NC(=O)O[C@H]1CO[C@H]2OCC[C@H]21)S(=O)(=O)c1ccc(N)cc1 [Darunavir]
% Enzyme Activity (relative to DMSO controls), Data 1 ([2]; 1 uM): 101.48%
% Enzyme Activity (relative to DMSO controls), Data 1 ([2]; 10 uM): 82.12%
% Enzyme Activity (relative to DMSO controls), Data 1 [3]: 116.81%
% Enzyme Activity (relative to DMSO controls), Data 1 ([4]; 1 uM): 105.45%
% Enzyme Activity (relative to DMSO controls), Data 1 ([4]; 10 uM): 98.21%

Nc1nc2c(ncn2COC(CO)CO)c(=O)[nH]1 [Ganciclovir]
% Enzyme Activity (relative to DMSO controls), Average [1, 5]: 111.12%
% Enzyme Activity (relative to DMSO controls), Data 1 ([1]; compound at 1 uM, replicate 1): 112.02%
% Enzyme Activity (relative to DMSO controls), Data 2 ([1]; compound at 1 uM, replicate 2): 110.21%
% Enzyme Activity (relative to DMSO controls), Average [1, 6]: 89.44%
% Enzyme Activity (relative to DMSO controls), Data 1 ([1]; compound at 10 uM, replicate 1): 97.24%
% Enzyme Activity (relative to DMSO controls), Data 2 ([1]; compound at 10 uM, replicate 2): 81.63%

c1coc(CNc2ncnc3[nH]cnc23)c1 [Kinetin]
% Enzyme Activity (relative to DMSO controls), Average [1, 5]: 107.09%
% Enzyme Activity (relative to DMSO controls), Data 1 ([1]; compound at 1 uM, replicate 1): 107.23%
% Enzyme Activity (relative to DMSO controls), Data 2 ([1]; compound at 1 uM, replicate 2): 106.95%
% Enzyme Activity (relative to DMSO controls), Average [1, 6]: 94.02%
% Enzyme Activity (relative to DMSO controls), Data 1 ([1]; compound at 10 uM, replicate 1): 94.51%
% Enzyme Activity (relative to DMSO controls), Data 2 ([1]; compound at 10 uM, replicate 2): 93.52%

Cc1ccc(Nc2c(F)cccc2Cl)c(CC(=O)O)c1 [Lumiracoxib]
% Enzyme Activity (relative to DMSO controls), Average ([2]; 1 uM): 98.27%
% Enzyme Activity (relative to DMSO controls), Average ([2]; 10 uM): 101.02%
% Enzyme Activity (relative to DMSO controls), Average ([3]; 10 uM, Average): 99.41%

OC[C@@H](O)[C@@H](O)[C@H](O)[C@H](O)CO [Mannitol]
% Enzyme Activity (relative to DMSO controls), Average [1, 5]: 113.06%
% Enzyme Activity (relative to DMSO controls), Data 1 ([1]; compound at 1 uM, replicate 1): 110.81%
% Enzyme Activity (relative to DMSO controls), Data 2 ([1]; compound at 1 uM, replicate 2): 115.31%
% Enzyme Activity (relative to DMSO controls), Average [1, 6]: 102.41%
% Enzyme Activity (relative to DMSO controls), Data 1 ([1]; compound at 10 uM, replicate 1): 100.39%
% Enzyme Activity (relative to DMSO controls), Data 2 ([1]; compound at 10 uM, replicate 2): 104.43%

Cc1ccc(Cl)c(Nc2ccccc2C(=O)O)c1Cl [Meclofenamate]
% Enzyme Activity (relative to DMSO controls), Data 1 ([2]; 1 uM): 121.09%
% Enzyme Activity (relative to DMSO controls), Data 1 ([2]; 10 uM): 115.51%
% Enzyme Activity (relative to DMSO controls), Data 1 [3]: 125.84%
% Enzyme Activity (relative to DMSO controls), Data 1 ([4]; 1 uM): 108.3%
% Enzyme Activity (relative to DMSO controls), Data 1 ([4]; 10 uM): 109.87%
